# Key:
# Type in all cases: functional
# CCRF-CEM = assay: Antiproliferative activity against human CCRF-CEM cells assessed as cell viability at 10^-5 M incubated for 48 hrs by sulforhodamine B assay relative to control; settings: read-out: Activity
# Hs-578T = assay: Antiproliferative activity against human Hs 578T cells assessed as cell viability at 10^-5 M incubated for 48 hrs by sulforhodamine B assay relative to control; settings: read-out: Activity
# NCI-H226 = assay: Antiproliferative activity against human NCI-H226 cells assessed as cell viability at 10^-5 M incubated for 48 hrs by sulforhodamine B assay relative to control; settings: NCI-H226, 48 h, read-out: Activity
# HCT-116 [1] = assay: Cytotoxicity against human HCT116 cells assessed as growth inhibition after 48 hrs by sulforhodamine B assay; settings: HCT-116, 48 h
# OVCAR-8 [2] = assay: Cytotoxicity against human OVCAR8 cells assessed as growth inhibition after 48 hrs by sulforhodamine B assay; settings: OVCAR-8, 48 h
# RPMI-8226 = assay: Antiproliferative activity against human RPMI8226 cells assessed as cell viability at 10^-5 M incubated for 48 hrs by sulforhodamine B assay relative to control; settings: RPMI-8226, 48 h, read-out: Activity
# HCC 2998 = assay: Antiproliferative activity against human HCC2998 cells assessed as cell viability at 10^-5 M incubated for 48 hrs by sulforhodamine B assay relative to control; settings: HCC 2998, 48 h, read-out: Activity
# 786-0 = assay: Antiproliferative activity against human 786-0 cells assessed as cell viability at 10^-5 M incubated for 48 hrs by sulforhodamine B assay relative to control; settings: 786-0, 48 h, read-out: Activity
# IGROV-1 = assay: Antiproliferative activity against human IGROV1 cells assessed as cell viability at 10^-5 M incubated for 48 hrs by sulforhodamine B assay relative to control; settings: IGROV-1, 48 h, read-out: Activity
# A498 = assay: Antiproliferative activity against human A498 cells assessed as cell viability at 10^-5 M incubated for 48 hrs by sulforhodamine B assay relative to control; settings: A498, 48 h, read-out: Activity
# SK-MEL-5 = assay: Antiproliferative activity against human SK-MEL-5 cells assessed as cell viability at 10^-5 M incubated for 48 hrs by sulforhodamine B assay relative to control; settings: SK-MEL-5, 48 h, read-out: Activity
# NCI/ADR-RES = assay: Antiproliferative activity against human NCI-ADR-RES cells assessed as cell viability at 10^-5 M incubated for 48 hrs by sulforhodamine B assay relative to control; settings: read-out: Activity
# K562 = assay: Antiproliferative activity against human K562 cells assessed as cell viability at 10^-5 M incubated for 48 hrs by sulforhodamine B assay relative to control; settings: K562, 48 h, read-out: Activity
# OVCAR-8 [3] = assay: Antiproliferative activity against human OVCAR8 cells assessed as cell viability at 10^-5 M incubated for 48 hrs by sulforhodamine B assay relative to control; settings: OVCAR-8, 48 h, read-out: Activity
# MDA-MB-468 = assay: Antiproliferative activity against human MDA-MB-468 cells assessed as cell viability at 10^-5 M incubated for 48 hrs by sulforhodamine B assay relative to control; settings: MDA-MB-468, 48 h, read-out: Activity
# NCI-H460 = assay: Antiproliferative activity against human NCI-H460 cells assessed as cell viability at 10^-5 M incubated for 48 hrs by sulforhodamine B assay relative to control; settings: NCI-H460, 48 h, read-out: Activity
# COLO 205 = assay: Antiproliferative activity against human COLO205 cells assessed as cell viability at 10^-5 M incubated for 48 hrs by sulforhodamine B assay relative to control; settings: COLO 205, 48 h, read-out: Activity
# Malme-3M = assay: Antiproliferative activity against human MALME-3M cells assessed as cell viability at 10^-5 M incubated for 48 hrs by sulforhodamine B assay relative to control; settings: read-out: Activity
# RXF 393 = assay: Antiproliferative activity against human RXF393 cells assessed as cell viability at 10^-5 M incubated for 48 hrs by sulforhodamine B assay relative to control; settings: RXF 393, 48 h, read-out: Activity
# HOP-62 = assay: Antiproliferative activity against human HOP62 cells assessed as cell viability at 10^-5 M incubated for 48 hrs by sulforhodamine B assay relative to control; settings: HOP-62, 48 h, read-out: Activity
# EKVX = assay: Antiproliferative activity against human EKVX cells assessed as cell viability at 10^-5 M incubated for 48 hrs by sulforhodamine B assay relative to control; settings: read-out: Activity
# MDA-MB-231 = assay: Antiproliferative activity against human MDA-MB-231 cells assessed as cell viability at 10^-5 M incubated for 48 hrs by sulforhodamine B assay relative to control; settings: MDA-MB-231, 48 h, read-out: Activity
# CAKI-1 = assay: Antiproliferative activity against human Caki1 cells assessed as cell viability at 10^-5 M incubated for 48 hrs by sulforhodamine B assay relative to control; settings: CAKI-1, 48 h, read-out: Activity
# BT-549 = assay: Antiproliferative activity against human BT549 cells assessed as cell viability at 10^-5 M incubated for 48 hrs by sulforhodamine B assay relative to control; settings: BT-549, 48 h, read-out: Activity
# SR = assay: Antiproliferative activity against human SR cells assessed as cell viability at 10^-5 M incubated for 48 hrs by sulforhodamine B assay relative to control; settings: read-out: Activity
# A549 = assay: Cytotoxicity against human A549 cells assessed as growth inhibition after 48 hrs by sulforhodamine B assay; settings: A549, 48 h; for CC50: read-out: LC50 (the source's name)
# SK-MEL-2 = assay: Antiproliferative activity against human SK-MEL-2 cells assessed as cell viability at 10^-5 M incubated for 48 hrs by sulforhodamine B assay relative to control; settings: SK-MEL-2, 48 h, read-out: Activity
# SF-295 = assay: Antiproliferative activity against human SF295 cells assessed as cell viability at 10^-5 M incubated for 48 hrs by sulforhodamine B assay relative to control; settings: SF-295, 48 h, read-out: Activity
# HCT-116 [4] = assay: Antiproliferative activity against human HCT116 cells assessed as cell viability at 10^-5 M incubated for 48 hrs by sulforhodamine B assay relative to control; settings: HCT-116, 48 h, read-out: Activity
# UACC-257 = assay: Antiproliferative activity against human UACC257 cells assessed as cell viability at 10^-5 M incubated for 48 hrs by sulforhodamine B assay relative to control; settings: UACC-257, 48 h, read-out: Activity
# SK-MEL-28 [5] = assay: Cytotoxicity against human SK-MEL-28 cells assessed as growth inhibition after 48 hrs by sulforhodamine B assay; settings: SK-MEL-28, 48 h
# SK-MEL-28 [6] = assay: Antiproliferative activity against human SK-MEL-28 cells assessed as cell viability at 10^-5 M incubated for 48 hrs by sulforhodamine B assay relative to control; settings: SK-MEL-28, 48 h, read-out: Activity
SMILES,viability at 10 µM (CCRF-CEM),viability at 10 µM (Hs-578T),viability at 10 µM (NCI-H226),GI50 (HCT-116 [1]),TGI (HCT-116 [1]),GI50 (OVCAR-8 [2]),TGI (OVCAR-8 [2]),viability at 10 µM (RPMI-8226),viability at 10 µM (HCC 2998),viability at 10 µM (786-0),viability at 10 µM (IGROV-1),viability at 10 µM (A498),viability at 10 µM (SK-MEL-5),viability at 10 µM (NCI/ADR-RES),viability at 10 µM (K562),viability at 10 µM (OVCAR-8 [3]),viability at 10 µM (MDA-MB-468),viability at 10 µM (NCI-H460),viability at 10 µM (COLO 205),viability at 10 µM (Malme-3M),other results
O=C1NC2C(CC(O)C(O)C2O)c2cc3c(c(O)c21)OCO3 (racemic),2.84%,-14.2%,-38.3%,40.4 nM,1130 nM,57.6 nM,1060 nM,-24.2%,-22.8%,-10.8%,-7.85%,-53.4%,-72.7%,1.95%,1.86%,-7.71%,-45.8%,-15.1%,-38.2%,-48.7%,viability at 10 µM (RXF 393): -37.3%; viability at 10 µM (HOP-62): -18.9%; viability at 10 µM (EKVX): -26.3%; viability at 10 µM (MDA-MB-231): -27.9%; viability at 10 µM (CAKI-1): -7.77%; viability at 10 µM (BT-549): -12.5%; viability at 10 µM (SR): 6.14%; GI50 (A549): 139 nM; TGI (A549): 1160 nM; CC50 (A549): > 100000 nM; viability at 10 µM (SK-MEL-2): -63.6%; viability at 10 µM (SF-295): -11.5%; viability at 10 µM (HCT-116 [4]): -1.49%; viability at 10 µM (UACC-257): -21.8%; GI50 (SK-MEL-28 [5]): 62.9 nM; TGI (SK-MEL-28 [5]): 480 nM
O=C1NC2C(CC(O)C(O)C2O)c2cc3c(c(O)c21)OCCO3 (racemic),-6.07%,-9.44%,-11.3%,77.7 nM,1310 nM,311 nM,5890 nM,-28.1%,-46.2%,-1.5%,-16.7%,-29.7%,-52.1%,-0.44%,1.56%,-13.8%,-27.2%,1.26%,-49%,-23.8%,LC50 (HCT-116 [1]): > 100000 nM; LC50 (OVCAR-8 [2]): > 100000 nM; viability at 10 µM (RXF 393): -24.2%; viability at 10 µM (HOP-62): -26.5%; viability at 10 µM (EKVX): -14.3%; viability at 10 µM (SK-MEL-28 [6]): -16.4%; viability at 10 µM (MDA-MB-231): -24.1%; viability at 10 µM (CAKI-1): 4.9%; viability at 10 µM (BT-549): -17.5%; viability at 10 µM (SR): -2.37%; GI50 (A549): 355 nM; TGI (A549): 8530 nM; CC50 (A549): > 100000 nM; viability at 10 µM (SK-MEL-2): -48.7%; viability at 10 µM (SF-295): -14.9%; viability at 10 µM (HCT-116 [4]): -3.3%; viability at 10 µM (UACC-257): -22.2%; GI50 (SK-MEL-28 [5]): 238 nM; LC50 (concentration killing 50% of cells) (SK-MEL-28 [5]): 29400 nM; TGI (SK-MEL-28 [5]): 890 nM

# — ChEMBL document CHEMBL4346705, “(±)-trans-Dihydronarciclasine and (±)-trans-dihydrolycoricidine analogues modified in their ring A: Evaluation of their anticancer activity and a SAR study” (2019)
